Laboratory results: ChEMBL document CHEMBL1144428 (J Med Chem, 2005)
Values belong to the molecule of their own block, whether it stands above or below them.

Molecular target: T1, Prostaglandin G/H synthase 1 (Mus musculus, UniProt P22437)
T1 sequence (P22437 whole entry): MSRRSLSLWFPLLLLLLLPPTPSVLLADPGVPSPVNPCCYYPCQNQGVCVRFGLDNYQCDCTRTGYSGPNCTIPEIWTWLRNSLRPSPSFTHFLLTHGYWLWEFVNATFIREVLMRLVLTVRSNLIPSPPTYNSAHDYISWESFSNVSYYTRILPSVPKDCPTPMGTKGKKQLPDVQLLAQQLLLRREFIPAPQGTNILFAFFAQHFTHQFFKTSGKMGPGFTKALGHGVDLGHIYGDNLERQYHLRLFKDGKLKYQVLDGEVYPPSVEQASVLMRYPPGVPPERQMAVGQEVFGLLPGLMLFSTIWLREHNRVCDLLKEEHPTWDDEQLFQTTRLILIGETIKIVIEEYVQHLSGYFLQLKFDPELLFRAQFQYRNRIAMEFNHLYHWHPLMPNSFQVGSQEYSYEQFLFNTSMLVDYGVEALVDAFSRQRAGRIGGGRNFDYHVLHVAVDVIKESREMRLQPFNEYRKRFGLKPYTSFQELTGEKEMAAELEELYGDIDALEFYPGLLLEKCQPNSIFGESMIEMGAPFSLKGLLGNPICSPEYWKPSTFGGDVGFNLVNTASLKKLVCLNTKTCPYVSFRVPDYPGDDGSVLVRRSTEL
Description: In vitro inhibitory activity against Prostaglandin G/H synthase 1 in murine J774 cells

SMILES: CCOC(=O)Cc1cc(-c2ccc(S(C)(=O)=O)cc2)n(-c2ccc(C)cc2)c1C
IC50: > 100 µM

SMILES: CCOC(=O)Cc1cc(-c2ccc(S(C)(=O)=O)cc2)n(-c2ccccc2)c1C
IC50: > 100 µM

SMILES: Cc1c(CC(=O)O)cc(-c2ccc(S(C)(=O)=O)cc2)n1-c1ccc(C(F)(F)F)cc1
IC50: > 100 µM

SMILES: Cc1ccc(-n2c(-c3ccc(S(C)(=O)=O)cc3)cc(CC(=O)O)c2C)cc1
IC50: > 100 µM

SMILES: CCOC(=O)C(=O)c1cc(-c2ccc(S(C)(=O)=O)cc2)n(-c2ccccc2)c1C
IC50: > 100 µM

SMILES: Cc1c(CC(=O)O)cc(-c2ccc(S(C)(=O)=O)cc2)n1-c1ccccc1
IC50: > 100 µM

Next, values leading:

IC50: > 100 µM
SMILES: CCOC(=O)Cc1cc(-c2ccc(S(C)(=O)=O)cc2)n(-c2ccc(C(F)(F)F)cc2)c1C

IC50: > 100 µM
SMILES: CCOC(=O)C(=O)c1cc(-c2ccc(S(C)(=O)=O)cc2)n(-c2ccc(C)cc2)c1C

IC50: > 100 µM
SMILES: CCOC(=O)C(=O)c1cc(-c2ccc(S(C)(=O)=O)cc2)n(-c2ccc(C(F)(F)F)cc2)c1C
